The results in this text go back to PubChem BioAssay AID194 (DTP/NCI, 2004).

The subject of this assay is BDF1 mice, B16 melanoma s.c., survival/tumor T/C. The assay is described as follows: NCI In Vivo Anticancer Drug Screen. Data for tumor model B16 Melanoma (subcutaneous) in B6D2F1 (BDF1) mice. The conditions noted are these: endpoint: median survival time, higher = longer survival. As for the experimental part:
The antitumor activity of compounds was measured in mice bearing transplantable tumors. Survival or tumor size were measured and the results are expressed as the measurement made in the treated group (T) divided by the measurement made in the vehicle treated control group (C). The tumor model used in this assay is B16 Melanoma (subcutaneous) in B6D2F1 (BDF1) mice

[1] abbreviates: dose: 2.0 mg/kg/injection, schedule: Q01DX009 (ip), vehicle: saline.
Setting [2] is: dose: 4.0 mg/kg/injection, schedule: Q01DX009 (ip), vehicle: saline.
Where [3] appears, read: dose: 50.0 mg/kg/injection, schedule: Q01DX009 (ip), vehicle: Klucel (hydroxypropylcellulose) (HPC).
Setting [4] is: dose: 100.0 mg/kg/injection, schedule: Q01DX009 (ip), vehicle: Klucel (hydroxypropylcellulose) (HPC).
Where [5] appears, read: dose: 1.0 mg/kg/injection, schedule: Q01DX009 (ip), vehicle: other.
[6] abbreviates: dose: 2.0 mg/kg/injection, schedule: Q01DX009 (ip), vehicle: other.

Molecules are shown by their SMILES. Several values for one entry are separate records, joined by “and”; a condition that tells them apart may be missing. Equal entries are not always repeated. Results filed as inconclusive are left out.

`S=P(N1CC1)(N1CC1)N1CC1`: the T/C was 97 % of control (dose: 1.0 mg/kg/injection, schedule: Q01DX001 (oral), vehicle: saline); 109 % of control and 113 % of control (dose: 1.0 mg/kg/injection, schedule: Q02DX009 (ip), vehicle: saline); 89 % of control (dose: 2.0 mg/kg/injection, schedule: Q01DX001 (oral), vehicle: saline); 106 % of control under setting [1]; 99 % of control and 202 % of control (dose: 2.0 mg/kg/injection, schedule: Q02DX009 (ip), vehicle: saline); 98 % of control (dose: 4.0 mg/kg/injection, schedule: Q01DX001 (oral), vehicle: saline). Besides, the T/C is 100 % of control (dose: 8.0 mg/kg/injection, schedule: Q01DX001 (oral), vehicle: saline); 98 % of control (dose: 8.0 mg/kg/injection, schedule: Q02DX009 (ip), vehicle: saline); 105 % of control (dose: 12.5 mg/kg/injection, schedule: Q01DX001 (ip), vehicle: saline); 100 % of control (dose: 16.0 mg/kg/injection, schedule: Q01DX001 (oral), vehicle: saline).

Turning to `C=C(C)C12OC3(c4ccccc4)OC1C1C4OC4(CO)C(O)C4(O)C(=O)C(C)=CC4C1(O3)C(C)C2OC(=O)/C=C/C=C/c1ccccc1` (centres undefined), the T/C runs as follows: (dose: 6.3 micrograms/kg/injection, schedule: Q01DX009 (ip), vehicle: saline with Tween-80) 115 % of control; (dose: 12.5 micrograms/kg/injection, schedule: Q01DX009 (ip), vehicle: saline with Tween-80) 99 % of control; (dose: 25.0 micrograms/kg/injection, schedule: Q01DX009 (ip), vehicle: saline with Tween-80) 115 % of control; (dose: 50.0 micrograms/kg/injection, schedule: Q01DX009 (ip), vehicle: saline with Tween-80) 103 % of control; (dose: 100.0 micrograms/kg/injection, schedule: Q01DX009 (ip), vehicle: saline with Tween-80) 98 % of control.

On to `COc1cccc2c1C(=O)c1c(O)c3c(c(O)c1C2=O)C[C@@](O)(/C(C)=N/NC(=O)c1ccccc1)C[C@@H]3OC1CC(N)C(O)C(C)O1` (some centres undefined), for which the T/C (dose: 3.0 mg/kg/injection, schedule: Q01DX009 (ip), vehicle: saline) is 103 % of control; the T/C under setting [2] is 118 % of control; the T/C (dose: 6.0 mg/kg/injection, schedule: Q01DX009 (ip), vehicle: saline) is 121 % of control; the T/C (dose: 15.0 mg/kg/injection, schedule: Q04DX003 (ip), vehicle: saline) is 103 % of control; the T/C (dose: 30.0 mg/kg/injection, schedule: Q01DX001 (ip), vehicle: saline) was 93 % of control.

Consider `CC1=CCC(C(C)C)C=C1` (centres undefined), for which the T/C (dose: 25.0 mg/kg/injection, schedule: Q01DX009 (ip), vehicle: Klucel (hydroxypropylcellulose) (HPC)) is 121 % of control; the T/C under setting [3] was 117 % of control; the T/C under setting [4] is 89 % of control and 100 % of control; the T/C (dose: 200.0 mg/kg/injection, schedule: Q01DX009 (ip), vehicle: Klucel (hydroxypropylcellulose) (HPC)) was 98 % of control and 108 % of control.

In the case of `COc1cc(NS(C)(=O)=O)ccc1Nc1c2ccccc2nc2ccccc12`, the T/C is 103 % of control (dose: 0.5 mg/kg/injection, schedule: Q01DX009 (ip), vehicle: other); 98 % of control under setting [5]; 89 % of control under setting [6]; 102 % of control (dose: 2.0 mg/kg/injection, schedule: Q01DX009 (ip), vehicle: saline with Tween-80); 101 % of control (dose: 3.0 mg/kg/injection, schedule: Q01DX009 (ip), vehicle: saline with Tween-80); 98 % of control (dose: 4.5 mg/kg/injection, schedule: Q01DX009 (ip), vehicle: saline with Tween-80). Besides, the T/C (dose: 9.0 mg/kg/injection, schedule: Q04DX003 (ip), vehicle: saline with Tween-80) is 89 % of control; the T/C (dose: 13.0 mg/kg/injection, schedule: Q04DX003 (ip), vehicle: saline with Tween-80) was 108 % of control; the T/C (dose: 20.0 mg/kg/injection, schedule: Q01DX001 (ip), vehicle: saline with Tween-80) was 101 % of control; the T/C (dose: 20.0 mg/kg/injection, schedule: Q04DX003 (ip), vehicle: saline with Tween-80) was 98 % of control; the T/C (dose: 30.0 mg/kg/injection, schedule: Q01DX001 (ip), vehicle: saline with Tween-80) is 107 % of control; the T/C (dose: 45.0 mg/kg/injection, schedule: Q01DX001 (ip), vehicle: saline with Tween-80) is 107 % of control.

For `CCO/C=C1\SC(=S)N(c2ccc(C(=O)O)cc2)C1=O`, the T/C is 110 % of control (dose: 3.12 mg/kg/injection, schedule: Q01DX009 (ip), vehicle: Klucel (hydroxypropylcellulose) (HPC)); 101 % of control (dose: 6.25 mg/kg/injection, schedule: Q01DX009 (ip), vehicle: Klucel (hydroxypropylcellulose) (HPC)); 118 % of control (dose: 12.5 mg/kg/injection, schedule: Q01DX009 (ip), vehicle: Klucel (hydroxypropylcellulose) (HPC)); 121 % of control under setting [3]; 121 % of control under setting [4].

Regarding `COc1cccc2c1C(=O)c1c(O)c3c(c(O)c1C2=O)C[C@@](O)(C(=O)CO)C[C@@H]3OC1CC(N)C(O)C(C)O1` (some centres undefined), the T/C is, setting by setting: (dose: 0.12 mg/kg/injection, schedule: Q01DX009 (ip), vehicle: saline) 100 % of control and 111 % of control; (dose: 1.0 mg/kg/injection, schedule: Q01DX008 (ip), vehicle: saline) 100 % of control; (dose: 1.5 mg/kg/injection, schedule: Q01DX008 (ip), vehicle: saline) 96 % of control.

With `O=NN(CCF)C(=O)NCCO`, the T/C by setting is: (dose: 3.11 mg/kg/injection, schedule: Q01DX007 (ip), vehicle: water) 98 % of control; (dose: 5.18 mg/kg/injection, schedule: Q01DX007 (ip), vehicle: water) 112 % of control; (dose: 8.64 mg/kg/injection, schedule: Q01DX007 (ip), vehicle: water) 123 % of control.

With `CCOC(=O)C(CC(C)C)NC(=O)C(Cc1ccc(N(CCCl)CCCl)cc1)NC(C)=O` (centres undefined), the T/C runs as follows: under setting [5], 91 % of control; under setting [6], 103 % of control; (dose: 4.0 mg/kg/injection, schedule: Q01DX009 (ip), vehicle: other) 97 % of control; (dose: 16.0 mg/kg/injection, schedule: Q01DX009 (ip), vehicle: other) 89 % of control.

On to `O=NN(CCCl)C(=O)NCCCl`, for which the T/C runs as follows: (dose: 0.5 mg/kg/injection, schedule: Q01DX009 (ip), vehicle: saline) 100 % of control; (dose: 1.0 mg/kg/injection, schedule: Q01DX009 (ip), vehicle: saline) 106 % of control; (dose: 1.5 mg/kg/injection, schedule: Q02DX009 (ip), vehicle: saline + alcohol) 151 % of control; under setting [1], 117 % of control; (dose: 3.11 mg/kg/injection, schedule: Q01DX007 (ip), vehicle: Klucel (hydroxypropylcellulose) (HPC)) 117 % of control; under setting [2], 184 % of control. The T/C by setting is: (dose: 8.0 mg/kg/injection, schedule: Q01DX009 (ip), vehicle: saline) 167 % of control; (dose: 14.4 mg/kg/injection, schedule: Q01DX007 (ip), vehicle: Klucel (hydroxypropylcellulose) (HPC)) 121 % of control.

On to `OCC1OC(n2cnc3c2NC=NC[C@H]3O)CC1O` (some centres undefined), for which the T/C runs as follows: (dose: 0.05 mg/kg/injection, schedule: Q03HX024 (ip), vehicle: saline) 90 % of control; (dose: 0.1 mg/kg/injection, schedule: Q03HX024 (ip), vehicle: saline) 105 % of control.

For the compound `N=c1ccn2c(n1)OC1C(O)C(CO)OC12` (centres undefined), the T/C runs as follows: (dose: 37.5 mg/kg/injection, schedule: Q01DX009 (ip), vehicle: saline) 95 % of control; (dose: 75.0 mg/kg/injection, schedule: Q01DX009 (ip), vehicle: saline) 100 % of control; (dose: 150.0 mg/kg/injection, schedule: Q01DX009 (ip), vehicle: saline) 101 % of control.
